Assay results taken from patent US11952593B2, “Detection and treatment of daughter number variations in cancer cells” (PharmacoGenetics Limited, priority 2020, dated 2024).

Columns and labels:
Assay type in all cases: cell-based, human
A549 cells = assay: Cell cytotoxicity assay (crystal violet), A549; settings: A549, 24 hours, 50 μM wogonin, 20 μM 5-FU, absorbance 600 nm
Protocol: (§1) Cell cytotoxicity assay was carried out on 96 well plate, where cells were treated with neutral, acidic, alkaline pH and anti-cancer drug wogonin or 5-FU. After 24 hours, crystal violet (8% in methanol), and dye absorbed by live cells was extracted with sodium citrate (0.1 M) in 50% ethanol. Absorbance was read at 600 nm.
(§2) HepG2, HeLa and A549 cells were grown to a monolayer density of 1×10^3 per well in neutral growth medium overnight. There upon the cells were changed to various treatment media at neutral, acidic and alkaline pHs, neutral medium containing 50 μM wogonin and neutral medium containing 20 μM 5-FU, for 24 hours at 37° C. in humidified 5% CO2 atmosphere. Following the treatment, floating cells were removed, and the attached cells were stained with crystal violet (8% in methanol); the dye absorbed by the live cells was extracted with sodium citrate (0.1 M) in 50% ethanol [1 25], and quantitated by absorbance at 600 nm.

[1] = system: HeLa cervical adenocarcinoma cells; assay: Time-lapse microscopy count of multi-daughter divisions (DNV frequency), HeLa; settings: wogonin 50 μM, 5-FU 20 μM
Protocol: (§3) To investigate DNVs, the human HepG2 hepatocellular carcinoma, HeLa cervical adenocarcinoma, and A549 lung adenocarcinoma cell lines, as well as the non-cancerous RPE1 line of hTRET-immortalized retina epithelial cells, were obtained from the American Type Culture Collection (ATCC, Manassas, Va., USA) and cultivated in Dulbecco's Modified Eagle Medium (DMEM) supplemented with 10% fetal bovine serum (Gemini Bio-Products, Sacramento. Calif.) under a humidified atmosphere of 5% C02 at 37° C. After 24 hours, the old medium was replaced by acidic DMEM growth medium buffered by 15 mM 2-(N-morpholino)-ethanesulfonic acid.HCl (MES) at pH 6.4, neutral DMEM growth medium buffered by 15 mM 3-(N-morpholino)propanesulfonic acid.HCl (MOPS) at pH 7.4, alkaline growth medium buffered by 15 mM tris(hydroxymethyl)aminomethane.HCl (Tris) at pH 8.4, or neutral DMEM growth medium containing wogonin (50 μM) or 5-FU (20 μM). Using phase contrast microscopy, time-lapse photographs were recorded at different positions of the wells at 15-minute intervals for 24 hours using the Nikon ECLIPSE Ti Live Cell Imaging Observatory, enabling the count of P1 through P8 patterns at the end of Stage 2 of the DNV process (FIG. 1). All the images were photographed at 100× magnification. Altemately, using fluorescence microscopy, the cells were seeded into 12 well plates at 1×10^3 per well and stained with Hoechst 33342 ([…], Thermofisher) for 30 minutes in an incubator at 37° C. After 30 minutes, culture medium was replaced by various treatment media and placed under the Nikon ECLIPSE Ti Live Cell Imaging Observatory for 24 hours. For the HeLa, HepG2 and A549 cells, the various treatments were also extended to 5 days. Because the RPE1 cells yielded no DNVs after 24 hours of drug treatment, its treatment periods were not extended beyond 24 hours. All the cells were manually traced and quantified using the ImageJ software. DNV frequencies were estimated by dividing the total number of multi-daughter ([…]) divisions by the total number of cell divisions. Fluorescence staining and time-lapse microscopy were employed to differentiate between the bi-, tri-, tetra- and penta-daughter cell divisions, and to estimate the percentages of the P1 through P8 patterns in the final daughter cells generated by each of the DNV events. GraphPad Prism 5.0 software was employed for statistical analysis, and the results were presented as the mean. Significance was determined using the Student t-test (two-tailed, unpaired/unequal variances).

[2] = system: A549 lung adenocarcinoma cells; assay: Time-lapse microscopy count of multi-daughter divisions (DNV frequency), A549; settings: wogonin 50 μM, 5-FU 20 μM
Protocol: as §3

HepG2 cells = assay: Cell cytotoxicity assay (crystal violet), HepG2; settings: HepG2, 24 hours, 50 μM wogonin, 20 μM 5-FU, absorbance 600 nm
Protocol: as §1, §2

## COc1c(O)cc(O)c2c(=O)cc(-c3ccccc3)oc12 [Wogonin, wogonin]
A549 cells
  Cell death as compared to neutral pH: increased cell death
[1]; 24 hours
  Bi-daughter divisions, % of total divisions: 98.3%
  Bi-daughter divisions, number: 3041
  Sum of Multi daughter Divisions, % of total mitotic divisions: 1.70%
  Sum of Multi daughter Divisions, number: 53
  Tetra-daughter divisions, % of total divisions: 0.19%
  Tetra-daughter divisions, number: 6
  Total number of observed divisions: 3094 (100)
  Tri-daughter divisions, % of total divisions: 1.54%
  Tri-daughter divisions, number: 47
  ≥Tetra-daughter divisions, number: 0
[1]; 5 days
  Bi-daughter divisions, % of total divisions: 84%
  Bi-daughter divisions, number: 205
  Sum of Multi-daughter Divisions, % of total mitotic divisions: 16.3%
  Sum of Multi-daughter Divisions, number: 40
  Tetra-daughter divisions, % of total divisions: 2.4%
  Tetra-daughter divisions, number: 6
  Total Divisions: 245 (100)
  Tri-daughter divisions, % of total divisions: 13.0%
  Tri-daughter divisions, number: 32
  ≥Tetra-daughter divisions, % of total divisions: 0.8%
  ≥Tetra-daughter divisions, number: 2
[2]; A549, 24 hours
  Bi-daughter divisions, % of total divisions: 99.6%
  Bi-daughter divisions, number: 1986
  Sum of Multi-daughter Divisions, % of total mitotic divisions: 0.3%
  Sum of Multi-daughter Divisions, number: 6
  Total number of observed divisions: 1992 (100)
  Tri-daughter divisions, % of total divisions: 0.30%
  Tri-daughter divisions, number: 6
[2]; A549, 24 hours, listed as wogonin
  Sum of Multi-daughter Divisions, % of total mitotic divisions: 0.30%
[2]; A549, 5 days
  Bi-daughter divisions, % of total divisions: 94.6%
  Bi-daughter divisions, number: 230
  Sum of Multi-daughter Divisions, % of total mitotic divisions: 5.3%
  Sum of Multi-daughter Divisions, number: 13
  Tetra-daughter divisions, % of total divisions: 2.4%
  Tetra-daughter divisions, number: 6
  Total Divisions: 243 (100)
  Tri-daughter divisions, % of total divisions: 2.8%
  Tri-daughter divisions, number: 7
  ≥Tetra-daughter divisions, number: 0
HepG2 cells
  Cell death as compared to neutral pH: increased cell death

## O=c1[nH]cc(F)c(=O)[nH]1 [5-FU, 5-flurouracil]
A549 cells
  Cell death as compared to neutral pH: increased cell death
[1]; 24 hours
  Bi-daughter divisions, % of total divisions: 99.0%
  Bi-daughter divisions, number: 3264
  Sum of Multi daughter Divisions, % of total mitotic divisions: 0.97%
  Sum of Multi daughter Divisions, number: 32
  Tetra-daughter divisions, % of total divisions: 0.09%
  Tetra-daughter divisions, number: 3
  Total number of observed divisions: 3296 (100)
  Tri-daughter divisions, % of total divisions: 0.88%
  Tri-daughter divisions, number: 29
  ≥Tetra-daughter divisions, number: 0
[1]; 5 days
  Bi-daughter divisions, % of total divisions: 91.8%
  Bi-daughter divisions, number: 143
  Sum of Multi-daughter Divisions, % of total mitotic divisions: 8.3%
  Sum of Multi-daughter Divisions, number: 13
  Tetra-daughter divisions, number: 0
  Total Divisions: 156 (100)
  Tri-daughter divisions, % of total divisions: 8.3%
  Tri-daughter divisions, number: 13
  ≥Tetra-daughter divisions, number: 0
[2]; A549, 24 hours
  Bi-daughter divisions, % of total divisions: 99.9%
  Bi-daughter divisions, number: 2205
  Sum of Multi-daughter Divisions, % of total mitotic divisions: 0.13%
  Sum of Multi-daughter Divisions, number: 3
  Total number of observed divisions: 2208 (100)
  Tri-daughter divisions, % of total divisions: 0.13%
  Tri-daughter divisions, number: 3
[2]; A549, 5 days
  Bi-daughter divisions, % of total divisions: 97%
  Bi-daughter divisions, number: 259
  Sum of Multi-daughter Divisions, % of total mitotic divisions: 3.0%
  Sum of Multi-daughter Divisions, number: 8
  Tetra-daughter divisions, number: 0
  Total Divisions: 267 (100)
  Tri-daughter divisions, % of total divisions: 3%
  Tri-daughter divisions, number: 8
  ≥Tetra-daughter divisions, number: 0
HepG2 cells
  Cell death as compared to neutral pH: increased cell death
